Measured values reported in patent publication US9340590B2 (priority 2011, dated 2016).
Positions of bridges follow the written chain, without caps; N, C: chain ends. Non-standard residues stand in square brackets, D forms with d. Residues, ends and D or L forms follow the SMILES beside them. Arg(Me2s) = CN=C(NC)NCCC[C@H](N)C(=O)O; Arg(Me) = CNC(=N)NCCC[C@H](N)C(=O)O

Legend:
[1] = molecular target: hNav1.5 (Homo sapiens, UniProt Q14524); test: cell-based
[2] = molecular target: hNav1.7 (Homo sapiens, UniProt Q15858); test: cell-based; settings: Nav1.7 Use IC50
Chain of hNav1.7 (Q15858 whole entry, looked up): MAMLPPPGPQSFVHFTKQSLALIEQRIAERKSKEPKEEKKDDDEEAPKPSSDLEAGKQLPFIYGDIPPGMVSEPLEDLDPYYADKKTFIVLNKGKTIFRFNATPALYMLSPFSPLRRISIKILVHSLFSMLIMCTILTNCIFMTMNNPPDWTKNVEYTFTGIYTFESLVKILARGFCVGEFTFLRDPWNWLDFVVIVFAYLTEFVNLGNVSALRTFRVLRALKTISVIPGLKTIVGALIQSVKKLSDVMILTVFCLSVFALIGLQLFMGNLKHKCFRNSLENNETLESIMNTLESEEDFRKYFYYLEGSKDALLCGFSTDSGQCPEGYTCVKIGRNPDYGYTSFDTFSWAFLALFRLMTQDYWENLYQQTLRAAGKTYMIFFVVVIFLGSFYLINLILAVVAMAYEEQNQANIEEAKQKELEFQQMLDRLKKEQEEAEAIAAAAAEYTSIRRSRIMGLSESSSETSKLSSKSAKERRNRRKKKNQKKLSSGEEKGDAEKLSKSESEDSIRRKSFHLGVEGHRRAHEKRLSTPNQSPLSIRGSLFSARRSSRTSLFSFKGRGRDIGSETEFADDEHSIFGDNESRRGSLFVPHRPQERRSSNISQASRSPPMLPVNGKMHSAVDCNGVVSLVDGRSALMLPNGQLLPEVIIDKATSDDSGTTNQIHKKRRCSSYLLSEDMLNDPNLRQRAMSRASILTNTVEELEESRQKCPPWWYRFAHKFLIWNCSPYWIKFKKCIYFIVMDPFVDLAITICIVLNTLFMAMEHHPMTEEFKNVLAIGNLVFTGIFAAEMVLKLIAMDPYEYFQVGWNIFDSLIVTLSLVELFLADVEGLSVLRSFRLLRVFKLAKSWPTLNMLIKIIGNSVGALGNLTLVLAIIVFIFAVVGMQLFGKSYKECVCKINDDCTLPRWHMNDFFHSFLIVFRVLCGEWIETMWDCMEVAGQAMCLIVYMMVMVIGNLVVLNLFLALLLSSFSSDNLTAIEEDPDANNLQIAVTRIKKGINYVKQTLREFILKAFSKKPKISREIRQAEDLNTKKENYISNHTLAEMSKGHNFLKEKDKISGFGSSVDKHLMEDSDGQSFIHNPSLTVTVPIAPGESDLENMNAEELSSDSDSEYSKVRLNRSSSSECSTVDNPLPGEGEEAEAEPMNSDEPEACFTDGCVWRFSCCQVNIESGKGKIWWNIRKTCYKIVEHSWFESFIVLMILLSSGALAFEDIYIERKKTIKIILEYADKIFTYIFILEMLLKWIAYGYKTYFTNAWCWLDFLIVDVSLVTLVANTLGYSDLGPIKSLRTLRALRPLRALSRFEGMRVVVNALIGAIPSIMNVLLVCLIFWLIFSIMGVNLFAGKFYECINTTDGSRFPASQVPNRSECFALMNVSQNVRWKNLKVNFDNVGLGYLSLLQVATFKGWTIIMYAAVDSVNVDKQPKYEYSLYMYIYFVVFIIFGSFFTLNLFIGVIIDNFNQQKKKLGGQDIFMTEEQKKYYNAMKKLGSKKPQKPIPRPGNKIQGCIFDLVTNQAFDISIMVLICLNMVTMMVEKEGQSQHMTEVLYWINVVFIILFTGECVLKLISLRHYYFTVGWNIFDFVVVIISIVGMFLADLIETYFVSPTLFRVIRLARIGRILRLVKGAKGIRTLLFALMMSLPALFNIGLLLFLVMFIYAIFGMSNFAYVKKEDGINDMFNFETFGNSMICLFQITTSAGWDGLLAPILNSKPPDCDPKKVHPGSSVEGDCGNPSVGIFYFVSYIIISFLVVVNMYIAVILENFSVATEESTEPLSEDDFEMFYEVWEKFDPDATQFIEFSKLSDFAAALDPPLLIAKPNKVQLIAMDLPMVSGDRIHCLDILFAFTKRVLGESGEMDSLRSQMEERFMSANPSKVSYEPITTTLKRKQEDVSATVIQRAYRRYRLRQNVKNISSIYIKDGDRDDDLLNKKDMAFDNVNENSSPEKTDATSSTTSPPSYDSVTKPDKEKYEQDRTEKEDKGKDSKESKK

Chain of hNav1.5 (Q14524 whole entry, looked up): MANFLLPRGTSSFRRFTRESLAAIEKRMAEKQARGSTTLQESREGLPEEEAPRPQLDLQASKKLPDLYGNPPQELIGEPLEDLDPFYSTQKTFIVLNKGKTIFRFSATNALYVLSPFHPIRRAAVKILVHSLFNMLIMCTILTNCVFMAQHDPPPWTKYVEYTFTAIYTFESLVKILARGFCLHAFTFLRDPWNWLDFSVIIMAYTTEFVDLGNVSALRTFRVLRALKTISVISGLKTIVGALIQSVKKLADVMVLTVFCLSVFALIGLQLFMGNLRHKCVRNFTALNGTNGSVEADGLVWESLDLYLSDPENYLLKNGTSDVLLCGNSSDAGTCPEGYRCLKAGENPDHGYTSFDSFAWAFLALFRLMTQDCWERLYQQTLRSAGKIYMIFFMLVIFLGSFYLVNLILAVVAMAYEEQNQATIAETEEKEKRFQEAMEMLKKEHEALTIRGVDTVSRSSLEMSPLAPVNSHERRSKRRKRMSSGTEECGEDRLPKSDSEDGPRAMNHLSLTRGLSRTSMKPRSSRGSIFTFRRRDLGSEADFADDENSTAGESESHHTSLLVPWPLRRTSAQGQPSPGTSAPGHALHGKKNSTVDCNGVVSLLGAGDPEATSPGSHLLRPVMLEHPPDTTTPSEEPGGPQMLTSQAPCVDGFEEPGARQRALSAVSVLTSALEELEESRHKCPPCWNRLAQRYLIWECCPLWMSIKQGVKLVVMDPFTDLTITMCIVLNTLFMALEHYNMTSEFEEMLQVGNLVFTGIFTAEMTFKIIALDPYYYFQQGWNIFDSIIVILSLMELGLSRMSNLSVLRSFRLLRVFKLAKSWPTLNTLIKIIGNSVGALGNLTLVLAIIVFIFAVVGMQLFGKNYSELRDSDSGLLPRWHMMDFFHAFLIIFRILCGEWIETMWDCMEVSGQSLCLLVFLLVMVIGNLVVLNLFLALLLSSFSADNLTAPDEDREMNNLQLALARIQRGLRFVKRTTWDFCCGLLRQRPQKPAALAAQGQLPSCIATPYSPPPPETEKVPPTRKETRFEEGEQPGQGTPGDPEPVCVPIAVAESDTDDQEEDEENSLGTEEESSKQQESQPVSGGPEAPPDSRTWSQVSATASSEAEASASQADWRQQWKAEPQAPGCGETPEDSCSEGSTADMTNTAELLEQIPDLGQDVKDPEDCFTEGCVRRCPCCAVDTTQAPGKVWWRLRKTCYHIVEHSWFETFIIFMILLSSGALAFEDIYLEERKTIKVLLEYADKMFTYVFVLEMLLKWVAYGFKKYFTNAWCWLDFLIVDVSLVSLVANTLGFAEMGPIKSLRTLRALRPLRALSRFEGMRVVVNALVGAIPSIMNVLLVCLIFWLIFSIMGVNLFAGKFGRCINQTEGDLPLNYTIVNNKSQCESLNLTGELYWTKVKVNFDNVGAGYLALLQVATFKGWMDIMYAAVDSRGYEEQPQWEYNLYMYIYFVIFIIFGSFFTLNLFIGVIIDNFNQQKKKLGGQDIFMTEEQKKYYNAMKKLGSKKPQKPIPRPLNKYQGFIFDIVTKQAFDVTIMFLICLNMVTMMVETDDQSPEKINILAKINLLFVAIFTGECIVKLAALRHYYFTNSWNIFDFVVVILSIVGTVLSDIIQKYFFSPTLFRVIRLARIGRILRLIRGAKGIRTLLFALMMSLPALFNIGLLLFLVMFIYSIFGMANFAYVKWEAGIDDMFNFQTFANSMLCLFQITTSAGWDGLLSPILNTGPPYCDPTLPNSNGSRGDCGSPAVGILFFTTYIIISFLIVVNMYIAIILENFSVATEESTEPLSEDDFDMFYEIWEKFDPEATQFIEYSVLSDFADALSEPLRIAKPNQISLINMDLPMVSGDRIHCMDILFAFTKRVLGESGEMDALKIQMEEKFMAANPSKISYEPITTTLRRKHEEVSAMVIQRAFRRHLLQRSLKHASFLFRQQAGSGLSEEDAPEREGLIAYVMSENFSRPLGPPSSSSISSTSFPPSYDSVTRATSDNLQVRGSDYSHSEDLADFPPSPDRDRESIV

Structure (SMILES) | IC50 [1] [µM] | IC50 [2] [µM]
CC[C@H](C)[C@@H]1NC(=O)[C@@H]2CSSC[C@@H]3NC(=O)[C@H](C(C)C)NC(=O)[C@H](CC(C)C)NC(=O)[C@H](CC(N)=O)NC(=O)[C@@H]4CCCN4C(=O)[C@H](CCCNC(=N)N)NC(=O)[C@H](CSSC[C@H](NC(=O)[C@@H](N)CC(=O)O)C(=O)N[C@@H](CC(C)C)C(=O)NCC(=O)N[C@@H](C)C(=O)N[C@@H](CCSC)C(=O)N[C@@H](CCCNC(=N)N)C(=O)N[C@@H](CCCCN)C(=O)N2)NC(=O)[C@H](CSSC[C@@H](C(=O)N[C@@H](CCCCN)C(=O)N[C@@H](Cc2ccc(O)cc2)C(=O)N[C@H](C(=O)N[C@@H](Cc2ccccc2)C(N)=O)C(C)C)NC(=O)[C@H](Cc2c[nH]c4ccccc24)NC(=O)[C@H](CCCNC(=N)NC)NC(=O)[C@H](Cc2c[nH]cn2)NC(=O)[C@H]([C@@H](C)O)NC(=O)[C@H](CCCNC(=N)N)NC(=O)[C@H](CO)NC3=O)NC(=O)[C@H](CCCCN)NC(=O)[C@H](CC(=O)O)NC(=O)[C@H](CC(N)=O)NC(=O)[C@H](CC(=O)O)NC(=O)[C@@H]2CCCN2C1=O [[Ala5;R(Me)28]GpTx-1(1-34)] (H-DCLGAMRKCIPDNDKCCRPNLVCSRTH[Arg(Me)]WCKYVF-NH2; disulfide 2-17, 9-23, 16-30) | > 10 | 0.051
CC[C@H](C)[C@@H]1NC(=O)[C@@H]2CSSC[C@@H]3NC(=O)[C@H](C(C)C)NC(=O)[C@H](CC(C)C)NC(=O)[C@H](CC(N)=O)NC(=O)[C@@H]4CCCN4C(=O)[C@H](CCCNC(=N)N)NC(=O)[C@H](CSSC[C@H](NC(=O)[C@@H](N)CC(=O)O)C(=O)N[C@@H](CC(C)C)C(=O)NCC(=O)N[C@@H](C)C(=O)N[C@@H](CCSC)C(=O)N[C@@H](CCCNC(=N)N)C(=O)N[C@@H](CCCCN)C(=O)N2)NC(=O)[C@H](CSSC[C@@H](C(=O)N[C@@H](CCCCN)C(=O)N[C@@H](Cc2ccc(O)cc2)C(=O)N[C@H](C(=O)N[C@@H](Cc2ccccc2)C(N)=O)C(C)C)NC(=O)[C@H](Cc2c[nH]c4ccccc24)NC(=O)[C@H](CCCNC(=NC)NC)NC(=O)[C@H](Cc2c[nH]cn2)NC(=O)[C@H]([C@@H](C)O)NC(=O)[C@H](CCCNC(=N)N)NC(=O)[C@H](CO)NC3=O)NC(=O)[C@H](CCCCN)NC(=O)[C@H](CC(=O)O)NC(=O)[C@H](CC(N)=O)NC(=O)[C@H](CC(=O)O)NC(=O)[C@@H]2CCCN2C1=O [[Ala5;SDMA28]GpTx-1(1-34)] (H-DCLGAMRKCIPDNDKCCRPNLVCSRTH[Arg(Me2s)]WCKYVF-NH2; disulfide 2-17, 9-23, 16-30) | > 10 | 0.041
CC[C@H](C)[C@@H]1NC(=O)[C@@H]2CSSC[C@@H]3NC(=O)[C@H](C(C)C)NC(=O)[C@H](CC(C)C)NC(=O)[C@H](CC(N)=O)NC(=O)[C@@H]4CCCN4C(=O)[C@H](CCCNC(=N)N)NC(=O)[C@H](CSSC[C@H](NC(=O)[C@@H](N)CC(=O)O)C(=O)N[C@@H](CC(C)C)C(=O)NCC(=O)N[C@@H](C)C(=O)N[C@@H](CCSC)C(=O)N[C@@H](CCCNC(=N)N)C(=O)N[C@@H](CCCCN)C(=O)N2)NC(=O)[C@H](CSSC[C@@H](C(=O)N[C@@H](CCCCN)C(=O)N[C@@H](Cc2ccc(O)cc2)C(=O)N[C@H](C(=O)N[C@@H](Cc2ccccc2)C(N)=O)C(C)C)NC(=O)[C@H](Cc2c[nH]c4ccccc24)NC(=O)[C@H](CO)NC(=O)[C@H](Cc2c[nH]cn2)NC(=O)[C@H]([C@@H](C)O)NC(=O)[C@H](CCCNC(=N)N)NC(=O)[C@H](CO)NC3=O)NC(=O)[C@H](CCCCN)NC(=O)[C@H](CC(=O)O)NC(=O)[C@H](CC(N)=O)NC(=O)[C@H](CC(=O)O)NC(=O)[C@@H]2CCCN2C1=O [[Ala5;Ser28]GpTx-1(1-34)] (H-DCLGAMRKCIPDNDKCCRPNLVCSRTHSWCKYVF-NH2; disulfide 2-17, 9-23, 16-30) | > 10 | 0.045
